Legend:
MALME-3M cells = experiment: Cell proliferation (resazurin) assay; type: cell-based, human; settings: 48 hr
Protocol: For hGH treatment, 16 hours after seeding (or 24 hours post-transfection), the cells were serum-starved for 2 hours in serum-free growth media, and hGH (phosphate buffered saline was used as control where applicable) was added at the noted concentrations (0-, 5-, 50-, and 150 ng/ml). Cells were subsequently incubated for 24 hours before evaluating RNA levels. Recombinant hGH was purchased from Antibodies Online (#ABIN2017921, Atlanta, Ga.).
On the other hand, a pronounced drop in proliferation levels in all the cell lines was seen when GHR was knocked down. […] Cell proliferation was estimated using resazurin-based metabolic assay. […] Averages of at least four independent experiments performed in quadruplicate were taken [*, p<0.05, Students t-test]. The results may indicate that human melanoma cells utilize GH-GHR interaction to drive aggressive tumor phenotypes.
To determine this, and referring now to FIGS. 35A-35D, changes in amounts of calcein retained inside cells following treatment with calcein-AM ester was analyzed by the fluorescence readout from intracellular calcein. Increased abundance of transporter pumps is reflected by decreased levels of intracellular calcein. […] Assays were performed 48 hr. post-transfection with either scr-siRNA or GHR-siRNA. […] SK-MEL-28 (FIG. 35C) and MALME-3M (FIG. 35D) cells were exposed to DMSO (vehicle), or 10 um cisplatin (Cis), or 5 nM paclitaxel (Pac) for 24 hr. Treatments were done 48 hr. post-transfection with either scr-siRNA (scr) or GHR-siRNA (GHR). Mean of three independent experiments performed in triplicate was taken. [*, p<0.05, Students t test, n=3]

HepG2 cells = experiment: RT-qPCR after GH / GHR-antagonist treatment; type: cell-based, human; settings: 3 days
Protocol: Following treatments, cells were lysed, and RNA extraction was performed using IBI Tri-isolate kit (IBI), following manufacturer's protocol. RT-qPCR was performed as described previously.
And so, the inventors performed a similar experiment with HepG2 and SK-HEP-1 human liver cancer cells, which have been extensively studied and known to express GHR, to verify this observation in human melanoma cells. In vitro, HepG2 cells were treated for 3 days with either 50 ng/mL GH (2.5 nM), or 50 nM […], or both GH and GHR-antagonist, and their RNA expressions were compared against untreated controls at basal condition (i.e. no drug treatment).
The inventors had previously shown that knock-down of GHR in turn strongly attenuates MET as well as HGF transcript levels in human melanoma. To verify this observation in another GHR expressing human cancer like HCC, the inventors analyzed the effects of GH and GHR-antagonist treatment on the expression of the oncogenic HGF-MET loop in human liver cancer cells. HepG2 and SK-HEP-1 cells were treated for 3 days with either 50 ng/mL GH (2.5 nM), or 50 nM GHR-antagonist, or both, and their RNA expressions were compared against untreated controls at basal levels (i.e. no drug treatment). No additional effect of added GH on the expression levels of HGF or MET in the liver cancer cell lines was observed, except a 2-fold increase in MET levels in SK-HEP-1 cells (FIG. 39). […] Irrespective of presence of added GH, the antagonist lowered HGF levels by >4-fold in Hep-G2 cells and up to 2-fold in SK-HEP-1 cells; while the MET levels were decreased by >2-fold in both Hep-G2 and SK-HEP-1 cells compared to the GH treated samples (FIG. 39). This observed nature of the suppressive effect of GHR-antagonist strongly indicates the existence of a autocrine/paracrine GH action in HCC, as the inventors had found stable GH expression in both Hep-G2 and SK-HEP-1 cells.

[1] = test system: Hep-G2 and SK-HEP-1 cells; experiment: Time-lapse WB of GH-regulated signaling pathways; type: cell-based, human; settings: 50 ng/mL GH; within 20 minutes
Protocol: Following treatments, cells were lysed by mild sonication in Ripa lysis buffer as described previously. SDS-PAGE and western-blot was performed using general lab-techniques as described previously.

four melanoma cell lines = experiment: Cell proliferation / EC50 determination; settings: serum concentration in media 1%
Protocol: A 1% (w/v) resazurin (Sigma-Aldrich #R7017) solution in 1× PBS was made and filter-sterilized. The final concentration of resazurin in the assay was 0.004%. Inside the proliferating cells, mildly fluorescent blue resazurin is reduced to a bright pink fluorescent product called resorufin (stable for 4 hours), which allows for a quantitative measure of the percentage of proliferating cells. In all cases, cells were incubated at 37° C. in 5% CO2 for 45-60 min. for adequate sensitivity of detection. Briefly, cells were seeded at 10,000 cells/cm^2 into 96-well plates and transfected as described above. The resazurin assay was performed 60 hours after transfection (unless specified otherwise) and resorufin absorbance was measured at 570 nm (reference wavelength=600 nm) using Spectramax250 (Molecular Devices, Sunnyvale, Calif.) and SoftmaxPro software.
More specifically, SK-MEL-28 cells (FIG. 8A, panel 1), MALME-3M cells (FIG. 8A, panel 2), MDA-MB-435 cells (FIG. 8A, panel 3), and SK-MEL-5 cells (FIG. 8A, panel 4) were treated with increasing doses of hGH for 48 hr. and cell proliferation was estimated using a resazurin-based metabolic assay.
For treatment of melanoma cells, the following five anti-tumor compounds were obtained from the sources mentioned: cisplatin (Calbiochem #232120, Darmstadt, Germany), doxorubicin (Sigma Aldrich #D-1515, St. Louis, Mo.), oridonin (Sigma-Aldrich #O-9639, St. Louis, Mo.), Paclitaxel (Sigma-Aldrich #C-7191), and vemurafenib/PLX4032 (ApexBio #A-3004, Houston, Tex.). […] In the subsequent experiments, the following drug concentrations were used unless specified otherwise: cisplatin (0.5 μM), doxorubicin (10 nM), oridonin (0.5 μM), paclitaxel (1 nM), vemurafenib (2 nM). Treatments were performed for 24 hours starting 48 hours post-transfection with siRNA.

Question: Which “Cell proliferation induced by hGH-excess (increase)” value (MALME-3M cells; 50 ng/ml hGH) does the source give for “hGH: Recombinant human growth hormone, Antibodies Online #ABIN2017921” here?
Answer: Its value is 248%.

Question: What about the increase in proliferation (MALME-3M cells; 150 ng/mL hGH) of the same substance?
Answer: The increase in proliferation was “more than 300%”.

Question: And the “RNA level of CDH1, the epithelial marker” value (HepG2 cells; 50 ng/mL GH)?
Answer: Its value is “downregulating”.

Question: And the “RNA levels of mesenchymal marker vimentin” value (HepG2 cells; 50 ng/mL GH)?
Answer: The value was “significantly upregulate”.

Question: What about the “levels of ABCC4 and of the transcription factor SPI-B” value (HepG2 cells; exogenous GH 50 ng/mL) of the same substance?
Answer: Its value is “markedly upregulated”.

Question: What about the “phosphorylation states of STAT3, STAT5, SRC, and ERK1/2 (p44/42 MAPK)” value [1] of the same substance?
Answer: The value was “increased significantly”.

Question: And the “minimum hGH concentration for a significant difference in cell proliferation” value (four melanoma cell lines)?
Answer: Its value is 50 ng/mL.

Reference: patent US11473088B2, “Method of treating cancer and method of sensitizing cancer cells to the action of chemotherapeutic agents via growth hormone receptor antagonists or knock down” (Ohio University, priority 2016, dated 2022)
